Structures can show the parent of a compound that is named as a salt.
Target: T1, dopamine D2 receptor (Homo sapiens, UniProt P14416)
T1 construct: expressed in transfected cells; host or cells: Chinese Hamster Ovary (CHO) cells, membranes
Assay: GTPS scintillation proximity assay (GTPS-SPA), CHO_D2 membranes
Assay type: biochemical
Conditions: up to the highest concentration tested in the assay (3 μM)
Protocol: Functional potency of compounds of this invention can be measured by the following GTPS scintillation proximity assay (GTPS-SPA). Cells used in the study are Chinese Hamster Ovary (CHO) Cells. • Cell Line • CHO_D2 • CHO_D3 • Dopamine CHO D3 (Biocat no 1060) transduced with bacmam G0 G-protein (Biocat no 97886)
All steps are performed at 4° C. Cell membranes are prepared as follows. Cell pellets are resuspended in 10 volumes of 50 mM HEPES, 1 mM EDTA pH 7.4, using KOH. Cells are homogenised within a glass waring blender for 2 bursts of 15 secs in 200 mls of buffer (50 mM HEPES, 1 mM leupeptin, 25 μg/ml bacitracin, 1 mM EDTA, 1 mM PMSF, 2 μM Pepstatin A). (the latter 2 reagents added as fresh ×100 and ×500 stocks respectively in ethanol). The blender is plunged into ice for 5 mins after the first burst and 10-40 mins after the final burst to allow foam to dissipate. The material is then spun at 500 g for 20 mins and the supernatant spun for 36 mins at 48.000 g. The pellet is resuspended in the same buffer as above but without PMSF and Pepstatin A. The material is then forced through a 0.6 mm needle, made up to the required volume, (usually ×4 the volume of the original cell pellet), aliquoted and stored frozen at −80° C.
The final top concentration of test drug is 3 μM in the assay and 11 points serial dilution curves 1:4 in 100% DMSO are carried out using a Biomek FX. The test drug at 1% (0.5 ul) total assay volume (TAV) is added to a solid, white Greiner polypropylene 384-well assay plate. 50% TAV (25 μl) of precoupled (for 60 mins at RT) membranes, 5 μg/well, and Wheatgerm Agglutinin Polystyrene Scintillation Proximity Assay beads (RPNQ0260, Amersham), 0.25 mg/well, in 20 mM HEPES (pH 7.4, 100 mM NaCl, 10 mM MgCl2), 60 μg/mL saponin and 30 uM GDP is added. The third addition is a 20% TAV (10 ul) addition of either buffer, (agonist format) or EC80 final assay concentration of agonist, Quinelorane, prepared in assay buffer (antagonist format). The assay is started by the addition of 29% TAV (15 ul) of GTP[35S] 0.38 nM final (37 MBq/mL, 1160 Ci/mmol, Amersham). After all additions assay plates are spun down for 1 min at 1,000 rpm. The final assay cocktail ([…]) is incubated at room temperature to equilibrate for 3-6 hours before reading on a ViewLux™ (613/55 filter) luminescence imager 5 min/plate.
The effect of the test drug over the basal generates fpKi values of test drug are calculated from the IC50 generated by “antagonist format” experiment, using Cheng & Prusoff equation: fKi=IC50/1+([A]/EC50) where: [A] is the concentration of the agonist Quinelorane in the assay and EC50 is the Quinelorane EC50 value obtained in the same experiment. fpKi is defined as −logfKi. • pKi results are only estimated to be accurate to about 0.3-0.5.

T1 sequence (P14416 whole entry): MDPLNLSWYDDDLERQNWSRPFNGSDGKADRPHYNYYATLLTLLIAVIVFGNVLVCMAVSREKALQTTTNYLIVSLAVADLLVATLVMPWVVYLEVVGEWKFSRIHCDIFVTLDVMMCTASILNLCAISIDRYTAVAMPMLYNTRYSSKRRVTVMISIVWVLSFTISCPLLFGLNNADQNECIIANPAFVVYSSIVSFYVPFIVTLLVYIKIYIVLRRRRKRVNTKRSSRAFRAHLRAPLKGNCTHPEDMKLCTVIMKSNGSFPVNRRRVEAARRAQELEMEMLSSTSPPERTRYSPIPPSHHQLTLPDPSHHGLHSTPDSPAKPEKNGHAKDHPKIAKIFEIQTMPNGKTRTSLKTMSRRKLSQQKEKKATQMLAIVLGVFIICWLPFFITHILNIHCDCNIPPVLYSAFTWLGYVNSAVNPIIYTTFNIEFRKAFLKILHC

activity in the D2 GTPS-SPA assay	Compound
no activity	Cl.O=c1ccn(CCCCN2C[C@@H]3C[C@]3(c3ccc(C(F)(F)F)cc3)C2)c(=O)[nH]1 [Example E5, 1-(4-{(1S,5R)-1-[4-(trifluoromethyl)phenyl]-3-azabicyclo[3.1.0]hex-3-yl}butyl)-2,4(1H,3H)-pyrimidinedione hydrochloride]
no activity	Cl.O=c1[nH]c(=O)n(CCCN2C[C@@H]3C[C@]3(c3ccc(C(F)(F)F)cc3F)C2)cc1-c1cccs1 [Example E12, 1-(3-{(1S,5R)-1-[2-fluoro-4-(trifluoromethyl)phenyl]-3-azabicyclo[3.1.0]hex-3-yl}propyl)-5-(2-thienyl)-2,4(1H,3H)-pyrimidinedione hydrochloride]
no activity	Cl.O=c1[nH]c(=O)n(CCCN2C[C@@H]3C[C@]3(c3ccc(C(F)(F)F)cc3)C2)cc1C(F)(F)F [Example E13, 5-(trifluoromethyl)-1-(3-{(1S,5R)-1-[4-(trifluoromethyl)phenyl]-3-azabicyclo[3.1.0]hex-3-yl}propyl)-2,4(1H,3H)-pyrimidinedione hydrochloride]
no activity	Cl.N#Cc1cn(CCCN2C[C@@H]3C[C@]3(c3ccc(C(F)(F)F)cc3)C2)c(=O)[nH]c1=O [Example E17, 2,4-dioxo-1-(3-{(1S,5R)-1-[4-(trifluoromethyl)phenyl]-3-azabicyclo[3.1.0]hex-3-yl}propyl)-1,2,3,4-tetrahydro-5-pyrimidinecarbonitrile hydrochloride]
no activity	Cl.N#Cc1cn(CCCCN2C[C@@H]3C[C@]3(c3ccc(C(F)(F)F)cc3)C2)c(=O)[nH]c1=O [Example E18, 2,4-dioxo-1-(4-{(1S,5R)-1-[4-(trifluoromethyl)phenyl]-3-azabicyclo[3.1.0]hex-3-yl}butyl)-1,2,3,4-tetrahydro-5-pyrimidinecarbonitrile hydrochloride]
no activity	Cc1ncccc1-c1cn(CCCN2C[C@@H]3C[C@]3(c3ccc(C(F)(F)F)cc3)C2)c(=O)[nH]c1=O.Cl.Cl [Example E19, 5-(2-methyl-3-pyridinyl)-1-(3-{(1S,5R)-1-[4-(trifluoromethyl)phenyl]-3-azabicyclo[3.1.0]hex-3-yl}propyl)-2,4(1H,3H)-pyrimidinedione dihydrochloride]
no activity	Cl.Cl.O=c1[nH]c(=O)n(CCCN2C[C@@H]3C[C@]3(c3ccc(C(F)(F)F)cc3)C2)cc1-c1ccc(F)nc1 [Example E20, 5-(6-fluoro-3-pyridinyl)-1-(3-{(1S,5R)-1-[4-(trifluoromethyl)phenyl]-3-azabicyclo[3.1.0]hex-3-yl}propyl)-2,4(1H,3H)-pyrimidinedione dihydrochloride]
no activity	Cc1cc(-c2cn(CCCN3C[C@@H]4C[C@]4(c4ccc(C(F)(F)F)cc4)C3)c(=O)[nH]c2=O)ccn1.Cl [Example E23, 5-(2-methyl-4-pyridinyl)-1-(3-{(1S,5R)-1-[4-(trifluoromethyl)phenyl]-3-azabicyclo[3.1.0]hex-3-yl}propyl)-2,4(1H,3H)-pyrimidinedione hydrochloride]
no activity	Cl.Cl.O=c1[nH]c(=O)n(CCCN2C[C@@H]3C[C@]3(c3ccc(C(F)(F)F)cc3)C2)cc1-c1ccncc1 [Example E24, 5-(4-pyridinyl)-1-(3-{(1S,5R)-1-[4-(trifluoromethyl)phenyl]-3-azabicyclo[3.1.0]hex-3-yl}propyl)-2,4(1H,3H)-pyrimidinedione dihydrocholoride]
no activity	Cl.Cl.O=c1[nH]c(=O)n(CCCN2C[C@@H]3C[C@]3(c3ccc(C(F)(F)F)cc3)C2)cc1-c1cccnc1F [Example E25, 5-(2-fluoro-3-pyridinyl)-1-(3-{(1S,5R)-1-[4-(trifluoromethyl)phenyl]-3-azabicyclo[3.1.0]hex-3-yl}propyl)-2,4(1H,3H)-pyrimidinedione dihydrochloride]
no activity	Cl.O=c1[nH]c(=O)n(CCCN2C[C@@H]3C[C@]3(c3ccc(C(F)(F)F)cc3)C2)cc1-c1cccnn1 [Example E26, 5-(3-pyridazinyl)-1-(3-{(1S,5R)-1-[4-(trifluoromethyl)phenyl]-3-azabicyclo[3.1.0]hex-3-yl}propyl)-2,4(1H,3H)-pyrimidinedione hydrochloride]
no activity	Cc1ncccc1-c1cn(CCCCN2C[C@@H]3C[C@]3(c3ccc(C(F)(F)F)cc3)C2)c(=O)[nH]c1=O.Cl.Cl [Example E29, 5-(2-methyl-3-pyridinyl)-1-(4-{(1S,5R)-1-[4-(trifluoromethyl)phenyl]-3-azabicyclo[3.1.0]hex-3-yl}butyl)-2,4(1H,3H)-pyrimidinedione dihydrochloride]
no activity	Cc1ccccc1-c1cn(CCCN2C[C@@H]3C[C@]3(c3ccc(C(F)(F)F)cc3)C2)c(=O)[nH]c1=O.Cl [Example E31, 5-(2-methylphenyl)-1-(3-{(1S,5R)-1-[4-(trifluoromethyl)phenyl]-3-azabicyclo[3.1.0]hex-3-yl}propyl)-2,4(1H,3H)-pyrimidinedione hydrochloride]
no activity	Cc1cccc(-c2cn(CCCCN3C[C@@H]4C[C@]4(c4ccc(C(F)(F)F)cc4)C3)c(=O)[nH]c2=O)n1.Cl.Cl [Example E32, 5-(6-methyl-2-pyridinyl)-1-(4-{(1S,5R)-1-[4-(trifluoromethyl)phenyl]-3-azabicyclo[3.1.0]hex-3-yl}butyl)-2,4(1H,3H)-pyrimidinedione dihydrochloride]
no activity	Cl.O=c1[nH]c(=S)ccn1CCCCN1C[C@@H]2C[C@]2(c2ccc(C(F)(F)F)cc2)C1 [Example E33, 4-thioxo-1-(4-{(1S,5R)-1-[4-(trifluoromethyl)phenyl]-3-azabicyclo[3.1.0]hex-3-yl}butyl)-3,4-dihydro-2(1H)-pyrimidinone hydrochloride]
no activity	Cc1ccc(-c2cn(CCCN3C[C@@H]4C[C@]4(c4ccc(C(F)(F)F)cc4)C3)c(=O)[nH]c2=O)c(F)n1.Cl.Cl [Example E35, 5-(2-fluoro-6-methyl-3-pyridinyl)-1-(3-{(1S,5R)-1-[4-(trifluoromethyl)phenyl]-3-azabicyclo[3.1.0]hex-3-yl}propyl)-2,4(1H,3H)-pyrimidinedione dihydrochloride]
no activity	Cc1nc(F)ccc1-c1cn(CCCN2C[C@@H]3C[C@]3(c3ccc(C(F)(F)F)cc3)C2)c(=O)[nH]c1=O.Cl.Cl [Example E36, 5-(6-fluoro-2-methyl-3-pyridinyl)-1-(3-{(1S,5R)-1-[4-(trifluoromethyl)phenyl]-3-azabicyclo[3.1.0]hex-3-yl}propyl)-2,4(1H,3H)-pyrimidinedione dihydrochloride]
no activity	O=c1[nH]c(=O)n(CCCN2CC3C[C@]3(c3ccc(C(F)(F)F)cc3)C2)cc1-c1cccc(C(F)(F)F)n1 (some centres unmarked) [Example E38, dihydrochloride]
no activity	Cc1nc(-c2cn(CCCN3C[C@@H]4C[C@]4(c4ccc(C(F)(F)F)cc4)C3)c(=O)[nH]c2=O)ccc1F.Cl.Cl [Example E39, 5-(5-fluoro-6-methyl-2-pyridinyl)-1-(3-{(1S,5R)-1-[4-(trifluoromethyl)phenyl]-3-azabicyclo[3.1.0]hex-3-yl}propyl)-2,4(1H,3H)-pyrimidinedione dihydrochloride]
no activity	Cc1ccc(-c2cn(CCCN3C[C@@H]4C[C@]4(c4ccc(C(F)(F)F)cc4)C3)c(=O)[nH]c2=O)cn1.Cl.Cl [Example E40, 5-(6-methyl-3-pyridinyl)-1-(3-{(1S,5R)-1-[4-(trifluoromethyl)phenyl]-3-azabicyclo[3.1.0]hex-3-yl}propyl)-2,4(1H,3H)-pyrimidinedione dihydrochloride]
